{"source": "patent US20210353612A1", "about": "“HYPOXIA-INDUCIBLE FACTOR PROLYL HYDROXYLASE INHIBITORS FOR TREATING AGING-RELATED CONDITIONS” (BioAge Labs, Inc., priority 2020, published 2021)", "key": {"[1]": {"system": "27-month-old C57BL/6 mice", "test": "Activity monitoring wheel test (voluntary running wheel activity) in aged mice", "type": "in vivo, mouse", "settings": "27-month-old mice; 0.3 mg/dose PO once daily for 35 days", "method": "(§1) In this study, aged mice were treated with BGE-117 daily for 35 days. Daily voluntary running wheel activity levels, as well as hemoglobin levels at Days 0 and 14, were measured. The effects of the BGE-117 compound were examined for the reversal of frailty in mice.\nThe animals were housed with access to voluntary running wheels that wirelessly transmit running data to a computer for analysis. The outcome of interest was the median number of daily wheel rotations generated by mice in each group (n=9 per group), and this is shown as the dots in FIG. 6 (one median number of rotations per day per group) and also as the numbers on the right. […]\nThe first day of the study (Study Day 1) started with Animal Acclimation, followed by the BGE-117 treatment start date on Study Day 33 (Phase Day 1). […] For the frailty portion of the study, mice were assessed using an activity monitoring wheel which was monitored passively with a computer monitoring system. […]\nThe activity monitoring wheel is a running disk that monitors rotations. […] Activity was monitored passively and wirelessly with a computer monitoring system. Running wheel activity levels were monitored daily. […]\nThe wheels were electronically monitored and the number of rotations of the wheel per minute was recorded continuously throughout the entire study."}, "aged C57BL/6 mice": {"system": "aged C57BL/6 mice", "test": "Hemoglobin levels in aged mice (Hb assay kit ab234046)", "type": "in vivo, mouse", "settings": "for Hemoglobin concentration vs vehicle control (FIG. 4B): after 14 days of treatment; for Hemoglobin levels in aged mice, Mean: 27-month-old mice", "method": "as §1\nThe BGE-117 compound for the TA-1 treatment group was formulated in 0.5% carboxymethylcellulose (CMC) and 0.5% Tween 80 and constituted at a concentration of 1 mg/ml. The test article for the Control group included 0.5% CMC and 0.5% Tween 80, acting as a vehicle control. Mice were treated with BGE-117 at a concentration of 1 mg/ml at a volume of 300 μl/mouse (0.3 ml/mouse), for 0.3 mg/dose (TA-1); control group mice (TA-2) were administered a vehicle control at a dose volume of 0.3 ml/mouse. Administration was oral, once per day.\nUsing a 4 mm lancet, approximately 150 microliters of whole blood was collected from the submental vein, utilizing the submandibular vein as back-up. Blood was collected using 500 microliter Serum Separator tubes and stored at room temperature for 45 minutes or until clotted. Blood was centrifuged at 4000 RPM for 10 minutes in at 4° C. If the serum was not analyzed immediately, the serum was apportioned into 0.5 ml aliquots, stored, and transported at −80° C.\nThe following procedure was performed for the hemoglobin assay: • 1. Mouse blood was collected in Li-heparin tubes. • 2. Blood was briefly vortexed and 2 μl of whole blood was transferred into a 96-well clear plate containing 18 μl of distilled water. • 3. 160 μl sample buffer was added to the 96-well clear plate from the Hemoglobin Assay Kit (ab234046). • 4. 20 μl 1N NaOH was added to blood samples to the diluted sample in each well. • 5. The standard curve was established with included hemoglobin standard (ab234046) as per the manufacturer's instruction. • 6. The reaction was incubated at room temperature for 8-15 minutes. Read absorbance at 575 nm in end point mode. • 7. Hb concentration was calculated as recommended by the assay kit."}, "[2]": {"system": "23-month-old and 27-month old C57BL/6 mice with anemia of inflammation", "test": "Hemoglobin in aged mice with anemia of inflammation (elevated TNFα and/or IL-6), BGE-117 study", "type": "in vivo, mouse", "settings": "10 mg/kg PO once daily", "method": "The study included 23-month-old mice (n=39) (23-months old at the start of the experiment, and 24 months old at the end since the experiment lasted 35 days) and 27-month old mice (n=14) (27-months old at the start of the experiment, and 28 months old at the end since the experiment lasted 35 days) from strain C57BL/6 that were administered BGE-117 or vehicle once daily for a duration of […].\nOnce the 23 month old mice developed anemia of inflammation at 23-months (±2 weeks), mice were randomly divided into two groups: Anemia of inflammation vehicle-treated Control group 1 (“23-month Control Group” (CG1)) (n=18) and Anemia of inflammation BGE-117-treated group (“BGE-117 23-month Test Group” (BGE-117 TG1)) (n=21), while ensuring that the mean hemoglobin levels and inflammatory cytokine levels remained balanced among the groups.\nOnce the 27-month old mice developed anemia of inflammation at 27-months (±2 weeks), mice were randomly divided into two groups: Anemia of inflammation vehicle-treated Control group (“27-month Control Group” (CG2)) (n=8), Anemia of inflammation BGE-117-treated group (“BGE-117 27-month Test Group” (BGE-117 TG2)) (n=6), while ensuring that the mean hemoglobin levels remained balanced among the groups. The mice in the two “Anemia of inflammation” pre-treatment (baseline) groups had high (130% or higher of the median values) TNFα and/or IL-6 as indicated in FIGS. 11-12.\nThe 23-month old and 27-month old Test Groups BGE-117 TG1 and BGE-117 TG2 were administered 10 mg/kg of BGE-117 once daily for 5 weeks by oral gavage in 0.5% carboxymethylcellulose (CMC) and 0.5% Tween 80. The 23-month old and 27-month old Control Groups CG1 and CG2 were administered vehicle of 0.5% carboxymethylcellulose (CMC) and 0.5% Tween 80 by oral gavage on the same schedule.\nBlood was collected from the submandibular vein at the start of the study immediately before drug administration, and after 14 days of drug administration. The blood samples was mixed with EDTA and analyzed using the Hemoglobin assay kit from Abcam (ab234046) with modification. The signal was read on Molecular Device SpectraMax 340PC-384. The inflammatory markers were measured by Luminex Mouse Magnetic Assay (5-PLEX, LXSAMSM-05 by R&D Systems) on Luminex 200. At day 35 post drug initiation the mice were anesthetized with isoflurane and blood samples were collected from abdominal vein."}, "[3]": {"system": "patients over 65 years of age with UAA", "test": "Phase 2a, 12-week, randomized, double-blind, placebo-controlled study in Unexplained Anemia of Aging (UAA)", "type": "in vivo, human", "settings": "elderly UAA subjects; 4-24 mg once daily, 12 weeks", "text": "Study Title: A Phase 2a, 12-Week, Randomized, Double-Blind, Placebo-Controlled, Multi-Center Study to Evaluate Efficacy and Safety of BGE-117 in the Treatment of Unexplained Anemia of Aging (UAA)\nThis is a Phase II, randomized, double-blind, placebo-controlled multi-center study to compare the safety of BGE-117 when administered in patients over 65 years of age for 12 weeks. The study consists of 3 periods: Screening, Treatment, and Follow-up. FIG. 16 provides a summary of the study design.\nThe study size for this study is 160 evaluable subjects (80 subjects randomized to BGE-117 and 80 subjects randomized to placebo). The subject's maximum duration of participation is approximately 154 days. This includes 6 weeks for the Screening Period, 12 weeks for the Treatment Period, and 4 weeks for the Follow-up Period.\nSubjects are advised to take IP with water once a day, recommended that the subject take the study medication 1 hour before their morning meal, starting on Visit 3 (Day 1), for 84 consecutive days, through Visit 15 (Day 85). Capsules are taken whole, not crushed, chewed, or cut.\nThis study is a double-blind, placebo-controlled study. Subjects are randomized to receive either of the following: • BGE-117: a hypoxia inducible factor-prolyl hydroxylase (HIF-PHD) inhibitor in 4 mg and 12 mg capsules; or • Placebo: matching capsule without active drug • The starting dose and maximum dose for BGE-117/placebo is based on a subject's screening renal function results: • The starting dose for subjects with an estimated glomerular filtration rate (eGFR) ≥60 mL/min/1.73 m2 is 12 mg/placebo. The maximum dose is 24 mg/placebo. • The starting dose for subjects with an eGFR between ≥30 and <60 mL/min/1.73 m^2is 4 mg/placebo. The maximum dose is 16 mg/placebo.\nFrom Visits 5 through 11 (Days 15 through 57), dose adjustment opportunities are scheduled approximately every 14 days to achieve and maintain Hb within the target range. Dose adjustments are based on the local laboratory's results, with the goal of titrating Hb levels to a range of ≥12.0 to ≤13.0 g/dL. In the event of excessively rapid Hb increases or unacceptably high Hb levels or trends, in the investigator's opinion, the dose may be adjusted at any time, even on visits without a dose adjustment review.\n• Improvement in Hb at Visit 15 (Day 85/EOTP) compared to baseline\n• Improvement in FACIT-Fatigue Score at Visit 15 (Day 85/EOTP) compared to baseline\n• Change in Hb at Visits 7, and 11 (Days 29, and 57) and Follow-up Visit compared to baseline • Improvement in FACIT-Fatigue score at Visits 7 and 11 (Day 29 and 57) and the Follow-up Visit compared to baseline • Change in SPPB Score at Visits 7, 11, and 15 (Day 29, 57, and 85), and Follow-up Visit compared to baseline • Change in 6MWT Distance at Visits 7, 11, and 15 (Days 29, 57, and 85) and the Follow-up Visit compared to baseline • Change in SF-36 at Visits 7, 11, and 15 (Days 29, 57, and 85) and the Follow-up Visit compared to baseline • Evaluate the starting dose of BGE-117 in the treatment of UAA for subjects with eGFR ≥60 mL/min/1.73 m^2 and subjects with eGFR ≥30 and <60 mL/min/1.73 m^2\nChange in Hb is the primary endpoint and is a direct assessment of the disease of unexplained anemia in aging patients. Changes in FACIT-Fatigue is the key secondary endpoint. Analysis of both of these endpoints is an ANCOVA with baseline covariates. Testing for FACIT-Fatigue is done only after achieving statistical significance for the change in Hb."}, "[4]": {"system": "HIF prolyl hydroxylase (PHD) 1/2/3", "settings": "cited from earlier work"}, "[5]": {"system": "patients with chronic kidney disease and normal healthy human volunteers", "settings": "patients with chronic kidney disease and normal healthy human volunteers (Shinfuku et al. 2018); cited from earlier work"}, "5/6 nephrectomized rats": {"system": "5/6 nephrectomized rats", "settings": "5/6 nephrectomized rats (Kato et al. 2019); cited from earlier work"}}, "note": "“Also recorded” adds a separate entry of the source."}
{"smiles": "O=C(O)CNC(=O)C1=C(O)CCN(Cc2ccc(Oc3ccc(Cl)cc3)nc2)C1=O", "note": "[BGE-117, N-[(1{[6-(4-chlorophenoxy)-3-pyridinyl]methyl}-4-hydroxy-2-oxo-1,2,5,6-tetrahydro-3-pyridinyl)carbonyl]glycine]", "values": [{"measurement": "Voluntary running wheel activity (median daily wheel rotations) vs age-matched controls", "setting": "[1]", "value": "statistically significant (p<0.001) increase in voluntary activity; also recorded: significantly increased activity"}, {"measurement": "Hemoglobin concentration vs vehicle control (FIG. 4B)", "setting": "aged C57BL/6 mice; 23-month old mice", "value": "significant increase of hemoglobin levels"}, {"measurement": "Hemoglobin concentration vs vehicle control (FIG. 4B)", "setting": "aged C57BL/6 mice; 27-month old mice", "value": "significant increase of hemoglobin levels"}, {"measurement": "Hemoglobin levels in aged mice, Mean", "setting": "aged C57BL/6 mice; Week 0 (before treatment), BGE-117 group", "value": 10.98, "unit": "g/dL"}, {"measurement": "Hemoglobin levels in aged mice, Mean", "setting": "aged C57BL/6 mice; Week 2, 0.3 mg/dose PO once daily", "value": 19, "unit": "g/dL"}, {"measurement": "Hb levels of Test Groups vs Control Groups administered vehicle alone", "setting": "[2]; 23-month old and 27-month old Test Groups", "value": "significantly increased Hb levels"}, {"measurement": "Hemoglobin levels before vs after treatment (FIG. 9B)", "setting": "[2]; 23-month-old mice with elevated TNFα, after two weeks", "value": "significant increases in hemoglobin levels"}, {"measurement": "Hemoglobin levels before vs after treatment (FIG. 10B)", "setting": "[2]; 23 month old mice with elevated IL-6, after two weeks", "value": "Highly significant improvements in hemoglobin levels"}, {"measurement": "Hemoglobin levels before vs after treatment (FIG. 12B)", "setting": "[2]; 27-month old mice with elevated IL-6, after two weeks", "value": "Significant improvements in hemoglobin levels"}, {"measurement": "Hemoglobin levels before vs after treatment (FIG. 11B)", "setting": "[2]; 27-month-old mice with elevated TNFα, after two weeks", "value": "Significant improvements in hemoglobin levels"}, {"measurement": "Activity levels and sleep quality compared to baseline", "setting": "[3]", "value": "Improve activity levels and sleep quality"}, {"measurement": "Fatigue (FACIT-Fatigue Score) compared to baseline", "setting": "[3]", "value": "Reduce fatigue"}, {"measurement": "Hemoglobin levels compared to baseline", "setting": "[3]", "value": "Increase hemoglobin levels"}, {"measurement": "Oxygen delivery, mobility, QOL, and energy levels", "setting": "[3]", "value": "Improve oxygen delivery, mobility, QOL, and energy levels"}, {"measurement": "Physical activity (SPPB scores, 6MWT, grip strength test) compared to baseline", "setting": "[3]", "value": "Improve physical activity"}, {"measurement": "HIF prolyl hydroxylase inhibition, type", "setting": "[4]", "value": "competitive HIF prolyl hydroxylase (PHD) 1/2/3 pan-inhibitor"}, {"measurement": "EPO production", "setting": "[5]", "value": "increase EPO production"}, {"measurement": "Hemoglobin levels", "setting": "5/6 nephrectomized rats", "value": "increase hemoglobin levels"}]}
